Reference: ChEMBL document CHEMBL5096202, “Carbon-silicon switch led to the discovery of novel synthetic cannabinoids with therapeutic effects in a mouse model of multiple sclerosis” (Eur J Med Chem, 2021)
pEC50, pKi: −log10 of the molar value. Calls of active or inactive are those of the source. No cut-off for these calls is given here.

How the values were obtained:
Cannabinoid receptor 2 [1] = target: T1, Cannabinoid receptor 2 (Homo sapiens, UniProt P34972); experiment: Agonist activity at recombinant human CB2 receptor expressed in CHO cells assessed as inhibition of forskolin-induced cAMP accumulation by measuring maximum efficacy preincubated for 15 mins followed by forskolin stimulation and measured after 15 mins by HTRF assay relative to control; type: functional, cell-based; details: filed as agonist, time 30.0 min
Cannabinoid receptor 1 [2] = target: T2, Cannabinoid receptor 1 (Homo sapiens, UniProt P21554); experiment: Displacement of [3H]-CP55940 from recombinant human CB1 receptor expressed in CHO cells assessed as inhibition constant incubated for 120 mins by radioligand binding assay; type: cell-based
Cannabinoid receptor 2 [3] = target: T1, Cannabinoid receptor 2; experiment: Displacement of [3H]-CP55940 from recombinant human CB2 receptor expressed in CHO cells assessed as inhibition constant incubated for 120 mins by radioligand binding assay; type: cell-based
Cannabinoid receptor 1 [4] = target: T2, Cannabinoid receptor 1; experiment: Agonist activity at recombinant human CB1 receptor expressed in CHO cells assessed as inhibition of forskolin-induced cAMP accumulation preincubated for 15 mins followed by forskolin stimulation and measured after 15 mins by HTRF assay; type: functional, cell-based
Cannabinoid receptor 2 [5] = target: T1, Cannabinoid receptor 2; experiment: Agonist activity at recombinant human CB2 receptor expressed in CHO cells assessed as inhibition of forskolin-induced cAMP accumulation preincubated for 15 mins followed by forskolin stimulation and measured after 15 mins by HTRF assay; type: functional, cell-based
Cannabinoid receptor 1 [6] = target: T2, Cannabinoid receptor 1; experiment: Agonist activity at recombinant human CB1 receptor expressed in CHO cells assessed as inhibition of forskolin-induced cAMP accumulation by measuring maximum efficacy preincubated for 15 mins followed by forskolin stimulation and measured after 15 mins by HTRF assay relative to control; type: functional, cell-based; details: filed as agonist, time 30.0 min
[7] = Metabolic stability in human liver microsomes assessed as half life; type: ADME, Microsome
[8] = Metabolic stability in rat liver microsomes assessed as half life; type: ADME, Microsome
[9] = Metabolic stability in mouse liver microsomes assessed as half life; type: ADME, Microsome
[10] = Metabolic stability in human liver microsomes assessed as intrinsic clearance; type: ADME, Microsome; details: read-out: CLH
[11] = Metabolic stability in rat liver microsomes assessed as intrinsic clearance; type: ADME, Microsome; details: read-out: CLH
[12] = Metabolic stability in mouse liver microsomes assessed as intrinsic clearance; type: ADME, Microsome; details: read-out: CLH
[13] = Half life in C57BL/6 mouse at 10 mg/kg, ip measured upto 24 hrs by LC-MS/MS analysis; type: ADME, organism-based; details: in vivo
[14] = Tmax in C57BL/6 mouse at 10 mg/kg, ip measured upto 24 hrs by LC-MS/MS analysis; type: ADME, organism-based; details: in vivo
[15] = Cmax in C57BL/6 mouse at 10 mg/kg, ip measured upto 24 hrs by LC-MS/MS analysis; type: ADME, organism-based; parameters: dose 10 mg/kg, time < 24 hrs, route ip; details: in vivo
[16] = AUClast in C57BL/6 mouse at 10 mg/kg, ip measured upto 24 hrs by LC-MS/MS analysis; type: ADME, organism-based; parameters: time < 24 hrs, dose 10 mg/kg, route ip; details: in vivo
[17] = AUCinfinity in C57BL/6 mouse at 10 mg/kg, ip measured upto 24 hrs by LC/MS-MS analysis; type: ADME, organism-based; parameters: dose 10 mg/kg, time < 24 hrs, route ip; details: in vivo
Mus musculus [18] = experiment: Antiinflammatory activity in MOG (35 to 55 residues)/pertussis toxin-induced experimental autoimmune encephalomyelitis C57BL/6 mouse model assessed as reduction in clinical score administered intraperitoneally starting from day 3 to day 28; type: functional, organism-based; details: route ip, time 25.0 day, DDE = dose-dependent effect
[19] = Toxicity in MOG (35 to 55 residues)/pertussis toxin-induced experimental autoimmune encephalomyelitis C57BL/6 mouse model assessed as body weight loss at 5 to 10 mg/kg, ip administered starting from day 3 to day 28; type: organism-based; details: in vivo, 600 h, dose 5-10 mg/kg, time 25 day
Mus musculus [20] = experiment: (§1) Antiinflammatory activity in MOG (35 to 55 residues)/pertussis toxin-induced experimental autoimmune encephalomyelitis C57BL/6 mouse model assessed as reduction of inflammatory cell infiltration in transverse section of lumbar spinal cords at 5 to 10 mg/kg, ip administered starting from day 3 to day 28 by H&E staining based analysis; type: functional, organism-based; details: dose 5-10 mg/kg, time 25.0 day
Mus musculus [21] = experiment: as §1, with “in demyelination” for “of inflammatory cell infiltration”; type: functional, organism-based; details: dose 5-10 mg/kg, time 25.0 day
Mus musculus [22] = experiment: as §1, with “LFB” for “H&E”; type: functional, organism-based; details: dose 5-10 mg/kg, time 25.0 day
Mus musculus [23] = experiment: as §1, with “in demyelination” for “of inflammatory cell infiltration”, “LFB” for “H&E”; type: functional, organism-based; details: dose 5-10 mg/kg, time 25.0 day
Mus musculus [24] = experiment: Antiinflammatory activity in MOG (35 to 55 residues)/pertussis toxin-induced experimental autoimmune encephalomyelitis C57BL/6 mouse model assessed as reduction in infarcted brain proportion at 5 to 10 mg/kg, ip administered starting from day 3 to day 28 by TTC staining based analysis relative to control; type: functional; parameters: scale not given: the % may be the effect or the level left; details: dose 5-10 mg/kg, time 25 day
[25] = Toxicity in MOG (35 to 55 residues)/pertussis toxin-induced experimental autoimmune encephalomyelitis C57BL/6 mouse model assessed as behavioral changes at 10 mg/kg, ip administered once daily starting from day 3 to day 28; type: organism-based; details: in vivo, 600 h, time 25 day

T2 sequence (P21554 whole entry): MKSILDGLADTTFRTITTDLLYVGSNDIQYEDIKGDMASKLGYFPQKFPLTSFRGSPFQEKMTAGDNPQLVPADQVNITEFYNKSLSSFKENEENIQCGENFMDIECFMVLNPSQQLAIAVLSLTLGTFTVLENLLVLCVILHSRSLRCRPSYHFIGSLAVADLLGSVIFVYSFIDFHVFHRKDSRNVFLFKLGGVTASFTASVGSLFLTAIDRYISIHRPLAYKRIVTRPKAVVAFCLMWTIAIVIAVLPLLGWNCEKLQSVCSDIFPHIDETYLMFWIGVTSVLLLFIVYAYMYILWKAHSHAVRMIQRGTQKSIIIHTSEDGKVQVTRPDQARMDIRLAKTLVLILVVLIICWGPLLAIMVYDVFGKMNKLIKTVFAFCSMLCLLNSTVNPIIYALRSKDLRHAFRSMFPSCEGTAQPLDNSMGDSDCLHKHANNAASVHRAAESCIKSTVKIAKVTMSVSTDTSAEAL
T1 sequence (P34972 whole entry): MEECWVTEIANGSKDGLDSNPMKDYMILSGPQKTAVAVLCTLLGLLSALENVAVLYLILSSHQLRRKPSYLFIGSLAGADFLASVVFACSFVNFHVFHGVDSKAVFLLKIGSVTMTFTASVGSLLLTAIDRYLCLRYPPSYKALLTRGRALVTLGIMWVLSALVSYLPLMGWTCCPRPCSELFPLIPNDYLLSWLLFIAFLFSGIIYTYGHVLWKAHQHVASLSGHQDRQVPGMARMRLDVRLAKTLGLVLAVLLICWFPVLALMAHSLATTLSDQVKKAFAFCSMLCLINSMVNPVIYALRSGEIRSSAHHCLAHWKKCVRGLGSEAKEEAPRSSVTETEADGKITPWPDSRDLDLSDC

C=C(C)[C@@H]1CCC(C)=C[C@H]1c1c(O)cc([Si](C)(C)CCCCCC)cc1O
Emax (Cannabinoid receptor 2 [1]): 75.6%
pKi (Cannabinoid receptor 1 [2]): 8.81
pKi (Cannabinoid receptor 2 [3]): 8.33
pEC50 (Cannabinoid receptor 1 [4]): 6.66
pEC50 (Cannabinoid receptor 2 [5]): 6.83
Emax (Cannabinoid receptor 1 [6]): 95.9%
half-life [7]: 31.5 min
half-life [8]: 19.4 min
half-life [9]: 17.1 min
CLint scaled [10]: 55.2 mL/min/kg
CLint scaled [11]: 318 mL/min/kg
CLint scaled [12]: 128 mL/min/kg
half-life [13]: 314 min
Tmax [14]: 120 min
Cmax [15]: 1510 ng/mL
AUC(0-t) at 24 h [16]: 6630 ng·h/mL
AUC(0-inf) [17]: 6840 ng·h/mL
Activity (Mus musculus [18]): Dde
Activity [19]: Non-Toxic
Activity (Mus musculus [20]): Active
Activity (Mus musculus [21]): Active
Activity (Mus musculus [22]): Active
Activity (Mus musculus [23]): Active
Activity (Mus musculus [24]): 50%
Activity [25]: Toxic
